Data taken from patent publication US20220177538A1, “CO-AGONISTS AT GLP-1 AND GIP RECEPTORS SUITABLE FOR ORAL DELIVERY” (Novo Nordisk A/S, priority 2020, published 2022).
Where two headings read alike, the source gives them in different places. Starred links: 1 amine or outer side, 2 acyl side, 3 side chain; linkers in the order of their positions; H or OH if unused. Non-standard residues stand in square brackets, D forms with d. Residues, ends and D or L forms follow the SMILES beside them. Groups on a side chain read outwards from the residue. *: point of attachment. C20 diacid = O=C(O)CCCCCCCCCCCCCCCCCCC(=O)*; C18 diacid = O=C(O)CCCCCCCCCCCCCCCCC(=O)*; γGlu = O=C(O)[C@H](CCC(=O)[*:2])N[*:1]; εLys = N[C@@H](CCCCN[*:1])C(=O)[*:2]; Aib = CC(C)(N)C(=O)O

Assays:
[1] = biological target: T1, human GIP receptor (Homo sapiens, UniProt P48546); experiment: In vitro functional potency, CRE luciferase reporter, whole BHK cells (hGIPR); format: cell-based; details: BHK CRE luc2P hGIPR cells
T1 construct: expressed in transfected cells; host or cells: BHK (parent line BHKTS13), clone BHK CRE luc2P hGIPR
T1 sequence (P48546 22-466): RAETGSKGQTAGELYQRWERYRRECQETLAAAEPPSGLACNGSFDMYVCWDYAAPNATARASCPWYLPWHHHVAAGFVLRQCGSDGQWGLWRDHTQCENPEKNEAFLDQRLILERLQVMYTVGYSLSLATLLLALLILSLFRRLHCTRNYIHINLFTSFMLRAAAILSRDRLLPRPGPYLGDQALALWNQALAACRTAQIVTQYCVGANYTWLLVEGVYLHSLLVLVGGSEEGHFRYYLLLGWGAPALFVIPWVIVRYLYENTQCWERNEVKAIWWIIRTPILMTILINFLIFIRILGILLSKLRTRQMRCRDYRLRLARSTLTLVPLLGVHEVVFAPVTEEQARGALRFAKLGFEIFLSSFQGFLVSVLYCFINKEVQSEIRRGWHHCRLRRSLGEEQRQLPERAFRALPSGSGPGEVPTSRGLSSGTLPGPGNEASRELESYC
Procedure, shortened: (§1)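 Potencies are replicate means (n≥2) from non-linear log(agonist) vs response fits of CRE-driven luminescence. Cells were overnight-plated BHK CRE luc2P lines transfected with human GIPR or GLP-1R, 5000/well.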

[2] = Pharmacokinetic study in dogs after oral dosing of tablets with SNAC; format: in vivo, Beagle dogs; details: for Tmax / half-life: male
Experimental: The purpose of this example is to determine the half-life and plasma exposure in vivo of the compounds of the present invention after p.o. administration to beagle dogs, i.e. the terminal half-life and concentration of test substance that reaches circulation with time. This is done in a pharmacokinetic (PK) study, where these parameters of the compound in question are determined. By terminal half-life is generally meant the period of time it takes to halve a certain plasma concentration, measured after the initial distribution phase.
The amount of SNAC in the tablet composition was 100-300 mg, the amount of magnesium stearate in the tablet composition was 7.7 mg, and the target amount of each test substance in the tablet composition was 3-4 mg.
Male beagle dogs, 1-7 years of age and weighing 9-17 kg during the study period, were included in the study. The dogs were dosed in a fasting state. The dogs were group housed in pens (12 hours light: 12 hours dark), and fed individually and restrictedly once daily with Royal Canin Medium Adult dog food (Royal Canin Products, China Branch, or Brogaarden A/S, Denmark). The dogs were used for repeated PK studies with a suitable wash-out period between successive dosing. An appropriate acclimatization period was given prior to initiation of the first PK study. All handling, dosing, and blood sampling of the animals were performed by trained and skilled staff. Before the studies, the dogs were fasted overnight and from 0 to 4 hours after dosing. The dogs were restricted to water 1 hour before dosing until 4 hours after dosing, but otherwise had ad libitum access to water during the whole period.
The compositions were administered by a single oral dosing to the dogs in groups of 6-8 dogs. […] The mouth was then closed, and 10 mL of tap water was given by syringe or gavage to facilitate swallowing of the tablet.
One blood sample was drawn before dosing, and additional samples were drawn at predefined time points after dosing for up to 240 hours, such as up to 10 hours, to adequately cover the full plasma concentration-time absorption profile of the test substance. For each blood sample time point, approximately 0.8 mL of whole blood was collected in a 1.5 mL EDTA-coated tube, which was gently turned to mix the sample with EDTA. Blood samples were collected in EDTA buffer (8 mM) and then centrifuged at 4° C. 2000 g for 10 minutes. Plasma was pipetted into Micronic tubes on dry ice, and kept at −20° C. or lower until analysis. Blood samples were taken as appropriate, for example from a venflon in the cephalic vein in the front leg for the first 2 hours and then with syringe from the jugular vein for the rest of the time points. The first few drops were allowed to drain from the venflon to avoid heparin saline from the venflon in the sample.
All blood samples were collected into test tubes containing EDTA for stabilisation and kept on ice until centrifugation. Plasma was separated from whole blood by centrifugation and the plasma was stored at −20° C. or lower until analysis.
The plasma was analysed for test substance using LC-MS (Liquid Chromatography-Mass Spectrometry) as known to the person skilled in the art. […] RP-HPLC separation was achieved using a linear gradient of 1:1 acetonitrile/methanol in 1% aqueous formic acid using either: a Phenomenex Onyx Monolithic C18 column (50×2.0 mm) and a flow rate of 0.8 mL/min at 30° C.; or an Agilent Poroshell 120 SB-C18 column (50×2.1 mm, 2.7 μm) at a flow rate of 0.4 mL/min at 60° C. The mass spectrometer was operated in either positive ionization SIM mode or positive ionization PRM mode.
For each individual animal, a plasma concentration-time profile was analysed by a non-compartmental model in Pharsight Phoenix WinNonLin ver.

[3] = biological target: human GLP-1 receptor (Homo sapiens, UniProt P43220); experiment: In vitro functional potency, CRE luciferase reporter, whole BHK cells (hGLP-1R); format: cell-based; set-up: expressed in transfected cells; host or cells: BHK (parent line BHKTS13), clone BHK CRE luc2P hGLP-1R; details: BHK CRE luc2P hGLP-1R cells
human GLP-1 receptor, sequence (P43220 24-463): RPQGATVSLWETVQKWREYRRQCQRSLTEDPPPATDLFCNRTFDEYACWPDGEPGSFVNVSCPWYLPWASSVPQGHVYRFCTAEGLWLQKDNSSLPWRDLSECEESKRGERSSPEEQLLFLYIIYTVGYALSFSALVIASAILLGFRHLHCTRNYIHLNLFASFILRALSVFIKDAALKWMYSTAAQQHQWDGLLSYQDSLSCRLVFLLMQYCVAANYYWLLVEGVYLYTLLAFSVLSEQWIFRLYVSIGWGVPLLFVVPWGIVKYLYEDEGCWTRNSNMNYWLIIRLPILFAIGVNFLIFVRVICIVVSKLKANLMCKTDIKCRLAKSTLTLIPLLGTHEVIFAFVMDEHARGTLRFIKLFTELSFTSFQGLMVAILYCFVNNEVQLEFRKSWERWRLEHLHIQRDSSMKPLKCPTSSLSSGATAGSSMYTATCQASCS
Procedure, shortened: as §1

[4] = 0% HSA, read-out: hGIPR, CRE Luc 0% HSA EC50
[5] = hGIPR, CRE Luc 1% HSA EC50, 1% HSA
[6] = 0% HSA, read-out: hGLP-1R, CRE Luc 0% HSA EC50
[7] = hGLP-1R, CRE Luc 1% HSA EC50, 1% HSA
[8] = oral tablet, SNAC 100 mg, test substance 3 mg, Beagle dogs, arithmetic mean

| SMILES | EC50 [1, 4] [nM] | EC50 [1, 5] [nM] | AUC/Dose ([2]; dog, in vivo, po) [kg·h/L] | Cmax/Dose ([2]; dog, in vivo, po) [kg/L] | Tmax ([2]; Beagle, dog, in vivo, po) [h] | half-life ([2]; Beagle, dog, in vivo, po) [h] | EC50 [3, 6] [nM] | EC50 [3, 7] [nM] | Tmax ([2]; dog, plasma, oral tablet, SNAC 100 mg, test substance 3 mg, Beagle dogs, median, read-out: Tmax) [h] | AUC/Dose [2, 8] [kg·h/L] | Cmax/Dose [2, 8] [kg/L] |
| --- | --- | --- | --- | --- | --- | --- | --- | --- | --- | --- | --- |
| CC[C@H](C)[C@H](NC(=O)[C@H](Cc1ccccc1)NC(=O)[C@H](CCC(=O)O)NC(=O)[C@H](CCCNC(=N)N)NC(=O)[C@H](C)NC(=O)[C@H](C)NC(=O)[C@H](CCC(N)=O)NC(=O)[C@H](CCCCNC(=O)[C@@H](N)CCCCNC(=O)[C@@H](N)CCCCNC(=O)CC[C@H](NC(=O)CCCCCCCCCCCCCCCCCCC(=O)O)C(=O)O)NC(=O)[C@H](CCC(=O)O)NC(=O)[C@H](CC(C)C)NC(=O)[C@H](Cc1ccc(O)cc1)NC(=O)[C@@H](NC(=O)[C@H](CO)NC(=O)[C@H](Cc1ccc(O)cc1)NC(=O)[C@H](CC(=O)O)NC(=O)[C@H](CO)NC(=O)[C@@H](NC(=O)[C@H](Cc1ccccc1)NC(=O)[C@@H](NC(=O)CNC(=O)[C@H](CCC(=O)O)NC(=O)C(C)(C)NC(=O)[C@@H](N)Cc1ccc(O)cc1)[C@@H](C)O)[C@@H](C)O)[C@@H](C)CC)C(=O)N[C@@H](CC(N)=O)C(=O)N[C@@H](Cc1c[nH]c2ccccc12)C(=O)N[C@@H](CC(C)C)C(=O)N[C@@H](CC(C)C)C(=O)N[C@@H](C)C(=O)NCC(=O)NCC(=O)N1CCC[C@H]1C(=O)N[C@@H](CO)C(=O)N[C@@H](CO)C(=O)NCC(=O)N[C@@H](C)C(=O)N1CCC[C@H]1C(=O)N1CCC[C@H]1C(=O)N1CCC[C@H]1C(=O)N[C@@H](CO)C(=O)O [Compound 16] (H-Y[Aib]EGTFTSDYSIYLEK([εLys-εLys-γGlu-C20 diacid])QAAREFINWLLAGGPSSGAPPPS-OH) | 0.0134 | 0.804 | 8.6 | 0.21 | 1.3 | 47 | 0.0031 | 0.321 | – | – | – |
| CC[C@H](C)[C@H](NC(=O)[C@H](Cc1ccccc1)NC(=O)[C@H](CCC(=O)O)NC(=O)[C@H](CCCNC(=N)N)NC(=O)[C@H](C)NC(=O)[C@H](C)NC(=O)[C@H](CCC(N)=O)NC(=O)[C@H](CCCCNC(=O)[C@@H](N)CCCCNC(=O)[C@@H](N)CCCCNC(=O)CC[C@H](NC(=O)CCCCCCCCCCCCCCCCC(=O)O)C(=O)O)NC(=O)[C@H](CCC(=O)O)NC(=O)[C@H](CC(C)C)NC(=O)[C@H](CC(C)C)NC(=O)[C@@H](NC(=O)[C@H](CO)NC(=O)[C@H](Cc1ccc(O)cc1)NC(=O)[C@H](CC(=O)O)NC(=O)[C@H](CO)NC(=O)[C@@H](NC(=O)[C@H](Cc1ccccc1)NC(=O)[C@@H](NC(=O)CNC(=O)[C@H](CCC(=O)O)NC(=O)C(C)(C)NC(=O)[C@@H](N)Cc1ccc(O)cc1)[C@@H](C)O)[C@@H](C)O)[C@@H](C)CC)C(=O)N[C@@H](CC(N)=O)C(=O)N[C@@H](Cc1c[nH]c2ccccc12)C(=O)N[C@@H](CC(C)C)C(=O)N[C@@H](CC(C)C)C(=O)N[C@@H](C)C(=O)NCC(=O)NCC(=O)N1CCC[C@H]1C(=O)N[C@@H](CO)C(=O)N[C@@H](CO)C(=O)O [Compound 20] (H-Y[Aib]EGTFTSDYSILLEK([εLys-εLys-γGlu-C18 diacid])QAAREFINWLLAGGPSS-OH) | 0.0071 | 0.247 | – | – | – | 56 | 0.0042 | 0.256 | 2 | 10.8 | 0.21 |
| CC[C@H](C)[C@H](NC(=O)[C@H](Cc1ccccc1)NC(=O)[C@H](CCC(=O)O)NC(=O)[C@H](CCC(N)=O)NC(=O)[C@H](C)NC(=O)[C@H](C)NC(=O)[C@H](CCC(N)=O)NC(=O)[C@H](CCCCNC(=O)[C@@H](N)CCCCNC(=O)[C@@H](N)CCCCNC(=O)CC[C@H](NC(=O)CCCCCCCCCCCCCCCCC(=O)O)C(=O)O)NC(=O)[C@H](CCC(=O)O)NC(=O)[C@H](CC(C)C)NC(=O)[C@H](CC(C)C)NC(=O)[C@@H](NC(=O)[C@H](CO)NC(=O)[C@H](Cc1ccc(O)cc1)NC(=O)[C@H](CC(=O)O)NC(=O)[C@H](CO)NC(=O)[C@@H](NC(=O)[C@H](Cc1ccccc1)NC(=O)[C@@H](NC(=O)CNC(=O)[C@H](CCC(=O)O)NC(=O)C(C)(C)NC(=O)[C@@H](N)Cc1ccc(O)cc1)[C@@H](C)O)[C@@H](C)O)[C@@H](C)CC)C(=O)N[C@@H](CC(N)=O)C(=O)N[C@@H](Cc1c[nH]c2ccccc12)C(=O)N[C@@H](CC(C)C)C(=O)N[C@@H](CC(C)C)C(=O)N[C@@H](C)C(=O)NCC(=O)NCC(=O)N1CCC[C@H]1C(=O)N[C@@H](CO)C(=O)N[C@@H](CO)C(=O)NCC(=O)N[C@@H](C)C(=O)N1CCC[C@H]1C(=O)N1CCC[C@H]1C(=O)N1CCC[C@H]1C(=O)N[C@@H](CO)C(=O)O [Compound 24] (H-Y[Aib]EGTFTSDYSILLEK([εLys-εLys-γGlu-C18 diacid])QAAQEFINWLLAGGPSSGAPPPS-OH) | 0.0039 | 0.115 | 16.4 | 0.29 | 1.8 | 74 | 0.0121 | 0.49 | – | – | – |
| CC[C@H](C)[C@H](NC(=O)[C@H](Cc1ccccc1)NC(=O)[C@H](CCC(=O)O)NC(=O)[C@H](CCC(=O)O)NC(=O)[C@H](C)NC(=O)[C@H](C)NC(=O)[C@H](CCC(N)=O)NC(=O)[C@H](CCCCNC(=O)[C@@H](N)CCCCNC(=O)[C@@H](N)CCCCNC(=O)CC[C@H](NC(=O)CCCCCCCCCCCCCCCCC(=O)O)C(=O)O)NC(=O)[C@H](CCC(=O)O)NC(=O)[C@H](CC(C)C)NC(=O)[C@H](CC(C)C)NC(=O)[C@@H](NC(=O)[C@H](CO)NC(=O)[C@H](Cc1ccc(O)cc1)NC(=O)[C@H](CC(=O)O)NC(=O)[C@H](CO)NC(=O)[C@@H](NC(=O)[C@H](Cc1ccccc1)NC(=O)[C@@H](NC(=O)CNC(=O)[C@H](CCC(=O)O)NC(=O)C(C)(C)NC(=O)[C@@H](N)Cc1ccc(O)cc1)[C@@H](C)O)[C@@H](C)O)[C@@H](C)CC)C(=O)N[C@@H](CC(N)=O)C(=O)N[C@@H](Cc1c[nH]c2ccccc12)C(=O)N[C@@H](CC(C)C)C(=O)N[C@@H](CC(C)C)C(=O)N[C@@H](C)C(=O)NCC(=O)NCC(=O)N1CCC[C@H]1C(=O)N[C@@H](CO)C(=O)N[C@@H](CO)C(=O)NCC(=O)N[C@@H](C)C(=O)N1CCC[C@H]1C(=O)N1CCC[C@H]1C(=O)N1CCC[C@H]1C(=O)N[C@@H](CO)C(=O)O [Compound 25] (H-Y[Aib]EGTFTSDYSILLEK([εLys-εLys-γGlu-C18 diacid])QAAEEFINWLLAGGPSSGAPPPS-OH) | 0.0072 | 0.263 | 15.2 | 0.30 | 1.8 | 43 | 0.0155 | 0.74 | – | – | – |
